Source: patent US10837005B2, “Recombinant microorganism capable of producing methyl anthranilate and method of producing methyl anthranilate using the same” (priority 2019, dated 2020)

Assays:
[1] = Partition coefficient between aqueous-phase culture medium and organic-phase tributyrin; type: physicochemical; conditions: aqueous phase: Carbon-free MR minimum medium, organic phase tributyrin
Experimental: In order to solve the problem of toxicity of MANT, a two-phase aqueous organic culture system was used in the present invention (FIG. 5 in part a). Tributyrin was used as an organic solvent to extract MANT from the culture medium. Tributyrin extraction capacity was determined by measuring the partition coefficient between the aqueous medium of MANT and tributyrin, the solvent, and the result is shown in Table 2. Tributyrin is also capable of extracting ANT, but the amount of ANT extracted is very small compared to the amount of MANT and thus is negligible. […] The culture was carried out under the same conditions as in Example 1-2, except that, when IPTG was added, 10 mL of tributyrin was added therewith. MANT productivity was calculated on an aqueous phase basis (that is, Titer=Caq·Vaq+Corg·Vorg)/Vaq)).

E. coli = assay: MANT toxicity test on E. coli; type: cell-based
Experimental: […]. The low resistance of E. coli to MANT could adversely affect E. coli mutations that produce MANT at high concentrations. Thus, E. coli was cultured in a modified culture system.

[2] = system: Pseudomonas putida KT2440

Structure (SMILES): Nc1ccccc1C(=O)O [Anthranilate, anthranilic acid]
- Partition coefficient ([1]; pH 5.0): 4.7 ± 0.2
- Partition coefficient ([1]; pH 7.0): 0.1 ± 0.0
- Partition coefficient ([1]; pH 9.0): Very low

Structure (SMILES): COC(=O)c1ccccc1N [MANT, Methyl anthranilate]
- MANT concentration E. coli can withstand (E. coli): up to 0.5 g/L
- final OD600 value (E. coli; E. coli exposed to various concentrations of MANT up to 1 g/L): significantly reduced
- final OD600 value relative to base strain not exposed to MANT (E. coli; exposed to 0.5 g/L of MANT): about one third
- Partition coefficient ([1]; pH 7.0): 420.1 ± 7.6
- MANT concentration at which strain was not capable of growing ([2]; P. putida KT2440): 1.0 g/L
- growth profile ([2]; P. putida KT2440, various MANT concentrations): concentration-dependent inhibition
- MANT concentration at which growth was completely inhibited (C. glutamicum ATCC 13032; C. glutamicum): 2.0 g/L
- growth profile (C. glutamicum ATCC 13032; C. glutamicum ATCC 13032, various MANT concentrations): concentration-dependent inhibition
